How the values were obtained:
E. coli gyrase GyrA^I74M = target: T1, E. coli gyrase GyrA^I74M (Escherichia coli, UniProt P0AES4+P0AES6, I74M); experiment: DNA gyrase cleavage assay (CC50, % cleaved DNA); type: biochemical; conditions: for % maximal cleavage: GyrAI74M, average of 3 independent assays; for EC50: GyrA^I74M, mean ± s.d. of triplicate; for % cleaved DNA Average: average of replicates
T1 construct: alternative cryo-EM approach involving full-length E. coli gyrase; 10-His (cleaved yes); Twin-Strep (cleaved yes); made in house
Experimental: For DNA gyrase supercoiling assays to characterize gyrase mutants, 15 µl reactions were set up containing 250 ng of relaxed DNA, E. coli gyrase supercoiling buffer (35 mM Tris–Cl pH 7.5, 24 mM KCl, 4 mM MgCl2, 2 mM DTT, 1.8 mM spermidine, 1 mM ATP, 6.0% (w/v) glycerol, and 0.1 mg ml^−1 BSA), gyrase subunits and inhibitors. Concentrations of enzyme and inhibitor are stated in the figure legends. Inhibitors were diluted in the following way to reduce the chance of precipitation: stock compound in 100% DMSO was diluted to 5 mM in 100% DMSO. This compound solution was diluted to 1 mM by stepwise addition of 1 µl of 50% DMSO with thorough mixing via pipetting after each addition. All subsequent dilutions up to 100 µM were performed in the same way using H2O. After this point, compounds were stable and could be diluted in the normal way. Reactions were incubated at 37 °C for 30 min before stopping with 15 µl chloroform:isoamyl alcohol (24:1 v/v) and 15 µl of STEB (40% (w/v) sucrose, 100 mM Tris–Cl pH 8, 10 mM EDTA, 0.5 mg ml^−1 bromophenol blue).
Cleavage assays were set up in the same way as supercoiling assays with some modifications. The concentration of enzyme was increased 4-fold relative to the supercoiling assay and reactions were incubated for 1 h before addition of 0.2% SDS and proteinase K (0.2 mg ml^−1) and further incubation at 37 °C for 30 min to trap cleavage complexes. Reactions were stopped in the same way as supercoiling assays.
Results were visualized by agarose gel electrophoresis: 1% agarose Tris-acetate-EDTA (TAE) gels were run without ethidium bromide (supercoiling) or with 10 µg ml^−1 ethidium bromide (cleavage) at 8 V cm^−1.
DNA cleavage gels were analysed using densitometry (ImageJ). Experiments were carried out in triplicate and expressed as mean ± s.d. Curves were fitted using OriginPro 2021 (Origin Lab) according to a modified Hill equation:1 y=cI+(cF−cI)[…]/(k^n+x^n) where y is the percentage of cleaved DNA, cI is the initial cleavage, cF is the final cleavage, k is the CC50 (the concentration of inhibitor that results in cleavage of 50% of DNA), n is a slope factor and x is the inhibitor concentration.

DNA gyrase = DNA gyrase supercoiling inhibition assay (initial IC50 determination); type: biochemical, E. coli; conditions: vs Albi-3
Experimental: For initial compound IC50 determination, DNA supercoiling experiments with DNA gyrase were performed in a total volume of 30 μl of gyrase buffer (Inspiralis). The reactions contained 500 ng relaxed pBR322 plasmid DNA, 1.5 U DNA gyrase (6 U μl^−1) and albicidin derivatives at a final concentration of between 2.5 and 320 nM. The final DMSO concentration used was 3%. Samples were incubated at 37 °C for 30 min and subsequently loaded on an agarose gel. Electrophoretic analysis was performed using a 1% agarose gel (100 V, 90 min). DNA bands were stained with ethidium bromide and subsequently quantified using ImageJ 1.53k software.
Extended Data Fig. 8 Inhibition of supercoiling by Albi-1/2/3. a. Chemical structures of Albi-1, Albi-2 and Albi-3. b. Example supercoiling inhibition assay gels: Albi-1, decreasing concentrations (320, 160, 80, 40, 20, 10, 5, 2.5 nM); Albi-2 (320, 160, 80, 40, 20 nM); Albi-3 (960, 800, 640, 480, 320, 160, 80, 40 nM). First lane - relaxed pBR322; second lane - DNA gyrase. 40 nM albicidin was used as positive control (third lane). Different concentrations were tested and representative gels are shown.

[1] = type: physicochemical; conditions: 100 µM in Topo IV assays
Experimental: Supplementary Figure 11. Activity of albicidin and Albi-1/2/3 on E. coli topoisomerase IV. a. Plasmid relaxation activity of E. coli topo IV in the presence of albicidin, Albi-1, Albi-2 and Albi-3. First lane: negatively supercoiled pBR322; second lane: innate relaxation activity of E. coli topo IV (12.5 nM); third lane: effect of 20 µM CFX; subsequent lanes: effect of increasing compound concentration (0.1, 1, 10, 100 […]
higher concentration. b. Cleavage activity of E. coli topo IV in the presence of albicidin, Albi-1, Albi-2 and Albi-3. First lane: negatively supercoiled pBR322; second lane: innate cleavage activity of E. coli topo IV (15 nM); third lane: effect of 20 µM CFX; subsequent lanes: effect of increasing compound concentration (0.1, 1, 10, 100 µM). […]
concentration. All experiments were carried out in triplicates and representative gels […]
(1 picture or pasted object on this page, not shown here)

E. coli gyrase = target: T2, E. coli gyrase (Escherichia coli, UniProt P0AES4+P0AES6); experiment: Gyrase cleavage of linear DNA fragments (Mu217 and others); type: biochemical; conditions: 1 µM albicidin
T2 construct: alternative cryo-EM approach involving full-length E. coli gyrase; 10-His (cleaved yes); Twin-Strep (cleaved yes); made in house
Experimental: Mu217 DNA (25 nM) was incubated with 0.4 µM gyrase and indicated concentrations (1 or 10 µM) of diazirine-labelled albicidin (photo-Albi, φAlbi) in a volume of 20 µl (~70 ng DNA) at 37 °C for 30 min in gyrase cleavage buffer (see section 'Topoisomerase assays'). For CFX competition experiments, 30 µM CFX was added first, followed by the albicidin. Reactions were either irradiated with ultraviolet 365 nm (benchtop transilluminator) with cooling (ice) for 30 min or left on ice for 30 min (‘dark’). Then, 0.2% SDS and 0.2 mg ml^−1 proteinase K were added to both samples, which were incubated for another 30 min. Reactions were mixed with loading dye (STEB) and chloroform:isoamyl alcohol (24:1 v/v) before vortexing and centrifugation. The aqueous phase was loaded on 4–20% TBE (Tris–borate–EDTA) polyacrylamide gel (Thermo) and ran for 1 h at 150 V. DNA was visualized with SYBR Gold (Thermo) staining.
Extended Data Fig. 1 Length dependency of albicidin-mediated DNA cleavage. Position of cleaved DNA indicated by arrows and red dots. ATP and ADPNP were added as indicated, (----) stands for no nucleotide added. 20 nM gyrase, 1 µM albicidin and 25 nM DNA was used in each reaction.
Extended Data Fig. 5 Photocrosslinking of diazirine-labelled albicidin (photo-Albi) to the DNA. a. Structures of N-terminal photo-Albi and control compound. b. DNA cleavage assay with Mu217 fragment and indicated concentrations of compounds. The labelled DNA band appearing upon irradiation of a photo-compound when bound to the complex is marked by a yellow star. c. Ciprofloxacin competition experiment. Pre-incubation with excess CFX prevents albicidin binding and crosslinking. Details of the experiment are available in Methods section.

CC(C)Oc1c(NC(=O)c2ccc(NC(=O)[C@H](Cc3c[nH]nn3)NC(=O)c3ccc(NC(=O)c4ccc(C#N)cc4)cn3)cn2)ccc(C(=O)Nc2ccc(C(=O)O)cc2)c1O [Albi-1]
% maximal cleavage (E. coli gyrase GyrA^I74M): 79±5%
EC50 (E. coli gyrase GyrA^I74M): 30 ± 2.7 nM

COc1c(NC(=O)c2ccc(NC(=O)c3ccc(NC(=O)[C@H](Cc4c[nH]nn4)NC(=O)c4ccc(NC(=O)c5ccc6cc(O)ccc6c5)cc4)cn3)c(OCCN)c2O)ccc(C(=O)O)c1O [Albi-2]
better activity in the gyrase inhibition assay than Albi-3 (DNA gyrase): ~ 4 fold

COc1c(NC(=O)c2ccc(NC(=O)c3ccc(NC(=O)[C@H](Cc4c[nH]nn4)NC(=O)c4ccc(NC(=O)c5ccc6nc(C)ccc6c5)cc4)cn3)c(OC)c2O)ccc(C(=O)O)c1O [Albi-3]
solubility in assay [1]: solubility issues

COc1c(NC(=O)c2ccc(NC(=O)c3ccc(NC(=O)[C@H](CC#N)NC(=O)c4ccc(NC(=O)/C(C)=C/c5ccc(O)cc5)cc4)cc3)c(OC)c2O)ccc(C(=O)O)c1O [Albicidin]
% maximal cleavage (E. coli gyrase GyrA^I74M): 40±10%
reduction in the maximal amount of cleavage (E. coli gyrase GyrA^I74M; GyrA^I74M vs WT gyrase): ~ 2 fold
EC50 (E. coli gyrase GyrA^I74M): 42 ± 7.7 nM
% cleaved DNA Average (E. coli gyrase GyrA^I74M; albicidin 0.0025 µM): 2.868%
% cleaved DNA Average (E. coli gyrase GyrA^I74M; albicidin 0.005 µM): 1.835%
% cleaved DNA Average (E. coli gyrase GyrA^I74M; albicidin 0.01 µM): 6.013%
% cleaved DNA Average (E. coli gyrase GyrA^I74M; albicidin 0.025 µM): 10.9112%
% cleaved DNA Average (E. coli gyrase GyrA^I74M; albicidin 0.05 µM): 19.5143%
% cleaved DNA Average (E. coli gyrase GyrA^I74M; albicidin 0.1 µM): 32.1987%
% cleaved DNA Average (E. coli gyrase GyrA^I74M; albicidin 0.25 µM): 36.304%
% cleaved DNA Average (E. coli gyrase GyrA^I74M; albicidin 0.5 µM): 39.8221%
% cleaved DNA Average (E. coli gyrase GyrA^I74M; albicidin 1 µM): 36.4081%
cleavage of DNA fragments (E. coli gyrase; fragments shorter than 150 bp or absence of a nucleotide): almost no cleavage
cleavage of the 217 bp Mu SGS fragment (Mu217) (E. coli gyrase; in the presence of ATP or ADPNP): strong cleavage
